From publication PMC3199867, “Targeting surface nucleolin with multivalent HB-19 and related Nucant pseudopeptides results in distinct inhibitory mechanisms depending on the malignant tumor cell type” (BMC Cancer, 2011)

Assays:
T29 = experiment: Cell growth / multiplication (viable cell number); assay type: cell-based, murine; details: for % Growth inhibition After 3 days: T29, N6 or N7 20 μM, viable cell number vs untreated control, mean of at least 2 independent experiments; for IC50: T29 cells, 0-20 μM, number of viable cells at 3 days post-treatment, read-out: Cell number: IC50 72 hours post-passage; for multiplication index of cells at day 3 compared to day 0: T29 seeded at 150,000 cells/ml, 10 μM (hexavalent), triplicate, control 17.5-fold
Experimental: (§1) Human breast (MDA-MB-231, MDA-MB-435 [37]), prostate (LNCaP, from American Type Culture Collection, ATCC, Rockville, MD), and cervical (HeLa) epithelial cancer cells were grown in DMEM-glutamax medium (Gibco Invitrogen, Cergy-Pontoise, France) containing GlutaMAX™, 4.5 g/l glucose and supplemented with 10% heat-inactivated (56°C for 30 min) fetal bovine serum (FBS; Hyclone, Thermo Fisher Scientific, Inc). Human SW480 cells are derived from a grade 3-4 colon carcinoma, while the highly metastatic counterpart SW620 is established from the lymph node of a person. Both SW480 and SW620 cells (obtained from Francis Raul, IRCAD) are highly tumorigenic in nude mice. They were cultured in D-MEM, 10% FCS. The murine melanoma TIII cell line was obtained from Armelle Prévost-Blondel. Murine T29 lymphoma cells, obtained from Philippe Kastner (CNRS, Strasbourg), have been established from Ik^L/L tumors from mice carrying a hypomorphic mutation (Ik^L/L) in the Ikaros gene encoding a transcription factor that regulates lymphocyte differentiation, and acts also as a tumor suppressor in T lymphocytes. The T29 cells were cultured in RPMI medium containing 25 mM Hepes pH 7.6, 1 mM sodium pyruvate, and 10% FCS. Human leukemia cell lines, Jurkat (acute T cell leukemia), HuT 78 (cutaneous T lymphocyte), RAJI (Burkitt lymphoma), and HL60 (promyelocytic leukemia) were cultured in RPMI-1640 medium (Gibco) containing GlutaMAX™, and supplemented with 10% heat-inactivated FBS as described before. The wild-type Chinese hamster ovary cell line (CHO K1) was purchased from American Type Culture Collection (ATCC; Rockville, MD). The CHO LRP1-null cell line (CHO-13-5-1) was kindly provided by D. Strickland [47]. They were cultured in Ham's F12K medium. All cells were cultured with 10% (v/v) heat inactivated (56°C, 30 min) fetal bovine serum (FBS) (Roche Molecular Biochemicals, Indianapolis, IN) and 50 international units/mL penicillin-streptomycin (Invitrogen). Cell death was monitored conveniently by uptake of the trypan blue dye due to plasma membrane permeability of dying and/or dead cells.
Figure 7 HB-19 and related multivalent Nucant pseudopeptides induce cell death associated with internucleosomal DNA fragmentation. A. Inhibition of cell multiplication by HB-19 and related multivalent Nucant pseudopeptides. […] Cell cultures (in triplicate) were monitored for viable cell number daily for 3 days. The histograms show the mean number of cells/ml ± SD of triplicate samples. The multiplication index of cells at day 3 compared to day 0 (the day of seeding) is given at the top of histogram. At 3 days post passage of T29 cells, the cell multiplication index of cells is 17.5-fold compared to 8.9-, 7.2-, 2.2-, and 1.7-fold in the presence of treatment with HB-19, N3, N6, and N7, respectively. B. N7 inhibits T29 cell multiplication in a dose dependent manner. T29 cells seeded at 100,000/ml in 2 ml in the absence (0 μM) or presence of N7 at various concentrations 2.5, 5, 10 and 20 μM were cultured for 3 days and the number of viable cells was determined at day 1, 2, and 3 post-seeding. The ordinate gives the cell number/ml (the mean of 2 samples) in each culture at day 1, 2, and 3 post-seeding. C. Partial cleavage of surface/cytoplasmic nucleolin. T29 cells were cultured for 45 min with 0 (for control; lanes C), 2 and 10 μM of N6 before preparation of cytoplasmic (that contains both surface and cytoplasmic nucleolin) and nuclear extract and analysis by immunoblotting using rabbit polyclonal antibodies that are directed against the first 26 (panel anti-Nt Ab) and the last 16 amino acids (panel anti-Ct Ab) of human nucleolin, respectively. The nuclear extracts were analyzed by immunoblotting using anti-Nt Ab (Methods). […]

TIII [1] = experiment: Cell growth / proliferation (viable cell number); assay type: cell-based, murine; details: mean of at least 2 independent experiments; for % Growth inhibition After 3 days: N6 or N7 20 μM, viable cell number vs untreated control; for % Inhibition of cell Proliferation: after 3 days of culture, vs untreated control
Experimental: as §1

HeLa = experiment: Cell death (trypan blue uptake); assay type: cell-based, human; details: subconfluent, N6 or N7 20 μM, mean of at least 2 independent experiments
Experimental: as §1

RAJI = experiment: Cell death (trypan blue uptake); assay type: cell-based, human; details: freshly passaged, N6 or N7 20 μM, mean of at least 2 independent experiments
Experimental: as §1

Jurkat = experiment: Cell death (trypan blue uptake); assay type: cell-based, human; details: freshly passaged, N6 or N7 20 μM, mean of at least 2 independent experiments
Experimental: as §1

MDA-MB 231 = experiment: Cell death (trypan blue uptake); assay type: cell-based, human; details: MDA-MB 231, subconfluent, N6 or N7 20 μM, mean of at least 2 independent experiments
Experimental: as §1

SW620 = experiment: Cell death (trypan blue uptake); assay type: cell-based, human; details: SW620, subconfluent, N6 or N7 20 μM, mean of at least 2 independent experiments
Experimental: as §1

LNCaP = experiment: Cell death (trypan blue uptake); assay type: cell-based, human; details: subconfluent, N6 or N7 20 μM, mean of at least 2 independent experiments
Experimental: as §1

SW480 = experiment: Cell death (trypan blue uptake); assay type: cell-based, human; details: SW480, subconfluent, N6 or N7 20 μM, mean of at least 2 independent experiments
Experimental: as §1

MDA-MB 435 = experiment: Cell death (trypan blue uptake); assay type: cell-based, human; details: MDA-MB 435, subconfluent, N6 or N7 20 μM, mean of at least 2 independent experiments
Experimental: as §1

HL60 = experiment: Cell death (trypan blue uptake); assay type: cell-based, human; details: HL60, freshly passaged, N6 or N7 20 μM, mean of at least 2 independent experiments
Experimental: as §1

TIII [2] = experiment: Cell death (trypan blue uptake); assay type: cell-based, murine; details: subconfluent, N6 or N7 20 μM, mean of at least 2 independent experiments
Experimental: as §1

| Substance | % Growth inhibition After 3 days (T29) [%] | IC50 (T29) [µM] | multiplication index of cells at day 3 compared to day 0 (T29) [fold] | % Growth inhibition After 3 days (TIII [1]) [%] | % Cell death After 24 hours (HeLa) [%] | % Cell death After 24 hours (RAJI) [%] | % Cell death After 24 hours (Jurkat) [%] | % Cell death After 24 hours (MDA-MB 231) [%] | % Cell death After 24 hours (SW620) [%] | % Cell death After 24 hours (LNCaP) [%] | % Cell death After 24 hours (SW480) [%] | % Cell death After 24 hours (MDA-MB 435) [%] | % Cell death After 24 hours (HL60) [%] | % Cell death After 24 hours (TIII [2]) [%] | % Inhibition of cell Proliferation (TIII [1]; 2.5 μM) [%] | % Inhibition of cell Proliferation (TIII [1]; 5 μM) [%] | % Inhibition of cell Proliferation (TIII [1]; 10 μM) [%] | % Inhibition of cell Proliferation (TIII [1]; 20 μM) [%] |
| --- | --- | --- | --- | --- | --- | --- | --- | --- | --- | --- | --- | --- | --- | --- | --- | --- | --- | --- |
| Ac-KAKPGKAKPGKAKPG-NH2 [Nucant N7, Presents hexavalently the pseudo-tripeptide Lysψ(CH2N)-Pro-Arg coupled to a similar template as in HB-19] | 85 | 8 | 1.7 | 55 | < 5 | 42 | 45 | < 5 | < 5 | < 5 | < 5 | < 5 | 35 | < 5 |  |  |  |  |
| Ac-Lys-Aib-Gly-Lys-Aib-Gly-Lys-Aib-Gly-Lys-Aib-Gly-Lys-Aib-Gly-Lys-Aib-Gly-CONH2 [Nucant N6, Presents hexavalently the pseudo-tripeptide Lysψ(CH2N)-Pro-Arg coupled to the polypeptide template containing Aib] | 85 | 8 | 2.2 | 55 | < 5 | 42 | 45 | < 5 | < 5 | < 5 | < 5 | < 5 | 35 | < 5 | 12 | 20 | 32 | 45 |
